Results: US20250314644A1, “METHODS COMPRISING DETECTION OF ADP-HEPTOSE” (CHILDREN'S HOSPITAL MEDICAL CENTER, priority 2023, published 2025)

Tested on: Dnmt3a^WT cells
Assay: RNA-sequencing of HSPCs treated in vitro with ADP-heptose or H2O for 90 minutes
Type: cell-based, mouse

## Nc1ncnc2c1ncn2[C@@H]1O[C@H](COP(=O)(O)OP(=O)(O)O[C@@H]2O[C@H]([C@H](O)CO)[C@@H](O)[C@H](O)[C@@H]2O)[C@@H](O)[C@H]1O [ADP-heptose, ADP-D-glycero-β-D-manno-heptose]
Dnmt3a^WT cells, vs H2O
  logFC Isg15: 1.268
  logFC Jakmip1: −0.62
  logFC Kcnj5: −0.586
  logFC Kif19a: −2.028
  logFC Klrd1: 0.6629
  logFC Kynu: 0.8281
  logFC Lad1: 1.447
  logFC Lax1: −1.106
  logFC Lef1: −1.83
  logFC Lgals3bp: 0.6079
  logFC Lrrc32: 0.6455
  logFC Lrrc51: 0.7656
  logFC Ltbp4: −0.7
  logFC Lynx1: 0.6016
  logFC Mir6236: 1.076
  logFC Mir6516: 0.6089
  logFC Mir8112: 0.8138
  logFC Mmp14: −0.771
  logFC Mnda: 0.9121
  logFC Mpl: −0.631
  logFC Ms4a4c: 1.575
  logFC Mx1: 0.6985
  logFC Mx2: 1.416
  logFC Mzb1: −1.509
  logFC Nov: 0.9714
  logFC Nr4a3: 0.7772
  logFC Oas1a: 0.8999
  logFC Oas1b: 0.8441
  logFC Oas1c: 0.6578
  logFC Oas1g: 1.142
  logFC Oas2: 0.966
  logFC Oas3: 0.864
  logFC Oasl1: 1.088
  logFC Oasl2: 1.178
  logFC Oit3: 0.5873
  logFC P4htm: 0.6018
  logFC Parp12: 0.7346
  logFC Pcbd1: −0.601
  logFC Pcsk9: −0.871
  logFC Pdgfb: 0.647
  logFC Perp: 0.6841
  logFC Pglyrp2: 0.8355
  logFC Phf11b: 1.046
  logFC Plcb1: 0.628
  logFC Plek2: 1.111
  logFC Pou2af1: −1.979
  logFC Ppbp: 0.6175
  logFC Procr: −0.659
  logFC Prok2: −0.608
  logFC Ptch2: −0.695
  logFC Ptpn 14: −1.123
  logFC Ptprn: 0.7392
  logFC Rab17: −0.755
  logFC Rag1: −3.551
  logFC Ramp3: 0.8948
  logFC Rbp1: −0.727
  logFC Rsad2: 1.141
  logFC Rsph1: −0.696
  logFC Rtp4: 1.478
  logFC Scn4b: −2.647
  logFC Sdc3: 0.6166
  logFC Siglech: −0.625
  logFC Sirpb1b: −0.633
  logFC Slc25a27: −0.715
  logFC Slc52a3: 0.8162
  logFC Slfn4: 0.7308
  logFC Slfn5: 1.407
  logFC Slfn8: 0.8032
  logFC Smim8: 0.6316
  logFC Smpdl3b: −0.714
  logFC Snhg9: −0.7
  logFC Spry1: 0.6924
  logFC Srp54b: 2.042
  logFC St6gal1: −0.723
  logFC Stbd1: 0.7931
  logFC Tmem51: 0.6591
  logFC Tnfrsf9: 0.982
  logFC Tnfrsf11b: 3.017
  logFC Tnni1: 3.17
  logFC Traf1: 0.6999
  logFC Tsku: −0.836
  logFC Tspan13: −0.592
  logFC Tssk6: 0.668
  logFC Ube2j2: 0.8674
  logFC Usp18: 1.346
  logFC Vpreb1: −2.268
  logFC Vpreb2: −2.096
  logFC Vpreb3: −2.553
  logFC Wdr86: 1.035
  logFC Xaf1: 1.054
  logFC Zbp1: 1.131
  logFC Zbtb37: −0.702
  logFC Zbtb46: 1.256
WT HSPCs
  differentially expressed genes (global transcriptomic analysis): few differentially expressed genes
